Where no end group is shown, it is not given here.
Legend:
[1] = not given; remark: listed apart in the source
[2] = Nitrocefin hydrolysis kinetics (absorbance of degraded nitrocefin at 480 nm; initial rates V0, Michaelis-Menten fit); assay type: biochemical; parameters: Initial nitrocefin-degradation reaction rate, V0: unit not given here; conditions: for initial rate of nitrocefin degradation reaction (V0): peptide 170 µM, initial nitrocefin 107 µM, first 15 min (Fig. 3f); for initial rate of nitrocefin degradation reaction (V0) / nitrocefin degradation yield (turnover): Hepes 50 mM pH 7.4, 20 °C; for Initial nitrocefin-degradation reaction rate, V0 / nitrocefin degradation yield (turnover): nitrocefin 60 µM; for Initial nitrocefin-degradation reaction rate, V0: Hepes pH 7.4, average of the six runs; for nitrocefin degradation yield (turnover): PSMα assemblies 350 µM, A480, monitored 2 h (Fig. 2a)
Method: Nitrocefin, a β-lactam widely used as a surrogate substrate of Penicillin in β-lactamase activity assay, was used as a substrate. NC degradation was monitored for 2 h. Nitrocefin stock solution was dissolved in acetonitrile (20 mM) and then diluted with Hepes buffer (50 mM, pH 7.4) to nitrocefin concentration of 360 µM (further dilutions to lower concentrations were made with the 360 µM NC stock). All nitrocefin samples were kept on ice in cold conditions and any further dilution or mixing was performed in ice-cold conditions to avoid self-hydrolysis background reaction. […] Immediately after mixing the samples, the plate was transferred to 20̊ °C pre-cooled plate reader (Multiskan GO, Thermo Scientific, Waltham, MA) and shaken slowly for 10 s. Then, the absorbance of degraded nitrocefin was measured for 2 h at interval of 20 s at λ = 480 nm. Initial production rates (V0) were calculated by slope of the initial linear range of degraded-nitrocefin production at the first 15 min. The reported results are and average of at least five separate measurements (the exact number of repeats, N, is reported next to the values). Each experiment also included blank samples of nitrocefin substrate diluted with buffer instead of PSMα. […] The initial rate calculations were performed while also subtracting the self-degradation of the substrate, to ensure that this product absorbance is a result of PSMα presence.
The initial rates of degraded-nitrocefin production were calculated from the slopes of the first 15 min of measurement as reported above. The initial rates (V0) were fitted using non-linear regression applied with the solver function in excel, either to Michalis–Menten equation V=Vmax.[S]/(KM+S) Where Vmax. Stands for maximal reaction rate, KM stands for Michalis–Menten constant, [S] stands for the substrate molar concentration. Each initial rate value was presented as average ± SEM. The kinetic parameters were calculated by fitting the data to MM model using non-linear regression, and the confidence intervals for each parameter were calculated accordingly.

[3] = system: O=C(Cc1cccs1)N[C@@H]1C(=O)N2C(C(=O)O)=C(/C=C/c3ccc([N+](=O)[O-])cc3[N+](=O)[O-])CS[C@H]12; experiment: Initial rates of nitrocefin hydrolysis by pre-assembled PSMα peptides (170 µM) followed by absorbance at 480 nm in 50 mM Hepes pH 7.4 at 20 °C, non-linear fit to the Michaelis-Menten equation.; assay type: biochemical
Method: Measurements of V0 as function of initial substrate (nitrocefin) concentrations (keeping the PSMα concentration constant at 170 µM, assuring amyloid formation, e.g., above the 30 μM threshold) are depicted in Fig. 2c. […] Table S1 summarizes the pertinent enzymatic parameters extracted from the initial reaction rate data in Fig. 2c using non-linear regression fit to a MM reaction model. Figure 2d presents the catalytic efficiencies, calculated for each peptide by dividing the turnover rate by the MM-constant (Kcat/KM), considered a measure for both substrate binding affinity and conversion kinetics into product.
(§1) Nitrocefin, a β-lactam widely used as a surrogate substrate of Penicillin in β-lactamase activity assay, was used as a substrate. NC degradation was monitored for 2 h. Nitrocefin stock solution was dissolved in acetonitrile (20 mM) and then diluted with Hepes buffer (50 mM, pH 7.4) to nitrocefin concentration of 360 µM (further dilutions to lower concentrations were made with the 360 µM NC stock). All nitrocefin samples were kept on ice in cold conditions and any further dilution or mixing was performed in ice-cold conditions to avoid self-hydrolysis background reaction. 120 µL of the pre-cooled nitrocefin solutions were mixed inside precooled clear 96-well plate (Greiner F-bottom) with 60 µL of pre-incubated PSMα solution (510 µM PSMα, incubated in DIW and later buffered in Hepes 50 mM, pH 7.4). Immediately after mixing the samples, the plate was transferred to 20̊ °C pre-cooled plate reader (Multiskan GO, Thermo Scientific, Waltham, MA) and shaken slowly for 10 s. Then, the absorbance of degraded nitrocefin was measured for 2 h at interval of 20 s at λ = 480 nm. Initial production rates (V0) were calculated by slope of the initial linear range of degraded-nitrocefin production at the first 15 min. The reported results are and average of at least five separate measurements (the exact number of repeats, N, is reported next to the values). Each experiment also included blank samples of nitrocefin substrate diluted with buffer instead of PSMα. All presented results include subtraction of buffer control. The initial rate calculations were performed while also subtracting the self-degradation of the substrate, to ensure that this product absorbance is a result of PSMα presence.
The initial rates of degraded-nitrocefin production were calculated from the slopes of the first 15 min of measurement as reported above. […] The kinetic parameters were calculated by fitting the data to MM model using non-linear regression, and the confidence intervals for each parameter were calculated accordingly. […]
Values derive from the fitting of the initial rates to MM model and are presented as calculated-value ± confidence interval. […]

[4] = system: O=C(Cc1cccs1)N[C@@H]1C(=O)N2C(C(=O)O)=C(/C=C/c3ccc([N+](=O)[O-])cc3[N+](=O)[O-])CS[C@H]12; experiment: Source-data fits for PSMα variants (170 µM): initial rates of nitrocefin hydrolysis (up to 240 µM) by absorbance at 480 nm in 50 mM Hepes pH 7.4 at 20 °C.; assay type: biochemical
Method: as §1
The initial rates of degraded-nitrocefin production were calculated from the slopes of the first 15 min of measurement as reported above. […] The kinetic parameters were calculated by fitting the data to MM model using non-linear regression, and the confidence intervals for each parameter were calculated accordingly.

[5] = AVG of runs, fit of V0 vs NC concentration
[6] = Michaelis-Menten fit of nitrocefin titration, single run, block r246-r259
[7] = Michaelis-Menten fit of nitrocefin titration, single run, block r262-r275
[8] = Michaelis-Menten fit of nitrocefin titration, single run, block r278-r291
[9] = Michaelis-Menten fit of nitrocefin titration, single run, block starting r293

Compound: KNKMFGVALFNFGFKEDLLFLK [α3-scrambled]
- ATR-FTIR amide-I shoulder: 1680 cm⁻¹
- ATR-FTIR amide-I peak/maximum [1]: 1630 cm⁻¹
- Kcat [2, 5]: 3362023 s⁻¹
- Vmax [2, 5]: 31897124362167 µM/h
- E [1/Ms] (catalytic efficiency) ([2]; AVG of runs, fit of V0 vs nitrocefin (NC) concentration): 0.653 M⁻¹ s⁻¹
- Kcat [2, 6]: 406977 s⁻¹
- Vmax [2, 6]: 249070136309 µM/h
- Kcat [2, 7]: 0.0002595 s⁻¹
- Km [2, 7]: 438 µM
- Vmax [2, 7]: 158.82 µM/h
- Kcat [2, 8]: 0.0002595 s⁻¹
- Km [2, 8]: 438 µM
- Vmax [2, 8]: 158.82 µM/h
- Kcat [2, 9]: 3.556e-05 s⁻¹
- Km [2, 9]: 37.6 µM
- Vmax [2, 9]: 21.76 µM/h
- initial rate of nitrocefin degradation reaction (V0) [2]: 21 µM/h

Compound: MGIIAGIIKVIKSLIEQFTGK [PSMα1]
- ATR-FTIR amide-I peak/maximum [1]: 1650 cm⁻¹
- Initial nitrocefin-degradation reaction rate, V0 ([2]; PSMα 4.01424 uM): 0.191
- Initial nitrocefin-degradation reaction rate, V0 ([2]; PSMα 6.02136 uM): -0.01182
- Initial nitrocefin-degradation reaction rate, V0 ([2]; PSMα 9.03205 uM): -0.1032
- Initial nitrocefin-degradation reaction rate, V0 ([2]; PSMα 13.5481 uM): -0.1644
- Initial nitrocefin-degradation reaction rate, V0 ([2]; PSMα 20.3221 uM): -0.2267
- Initial nitrocefin-degradation reaction rate, V0 ([2]; PSMα 30.4832 uM): -0.2129
- Initial nitrocefin-degradation reaction rate, V0 ([2]; PSMα 45.7247 uM): -0.2655
- Initial nitrocefin-degradation reaction rate, V0 ([2]; PSMα 68.5871 uM): -0.7898
- Initial nitrocefin-degradation reaction rate, V0 ([2]; PSMα 102.881 uM): 9.2527
- Initial nitrocefin-degradation reaction rate, V0 ([2]; PSMα 154.321 uM): 10.6002
- Initial nitrocefin-degradation reaction rate, V0 ([2]; PSMα 231.481 uM): 20.6526
- Initial nitrocefin-degradation reaction rate, V0 ([2]; PSMα 347.222 uM): 27.2811
- nitrocefin degradation yield (turnover) [2]: ~ 50%

Compound: PSMα3 (Staphylococcus aureus subsp. aureus NCTC 8325)
- Km [3]: 80 µM

Compound: MQFVAKLFKFFKNLLGKFLGNN-NH2 [α3-cationic]
- ATR-FTIR amide-I peak/maximum [1]: 1660 cm⁻¹
- initial rate of nitrocefin degradation reaction (V0) [2]: around 60 µM/h

Compound: CC[C@H](C)[C@H](NC(=O)[C@H](C)NC(=O)[C@@H](N)CCSC)C(=O)N[C@H](C(=O)NCC(=O)N[C@H](C(=O)N[C@H](C(=O)N[C@H](C(=O)N[C@@H](CCCCN)C(=O)N[C@H](C(=O)N[C@H](C(=O)N[C@@H](CCCCN)C(=O)N[C@@H](C)C(=O)N[C@H](C(=O)N[C@H](C(=O)N[C@@H](CC(=O)O)C(=O)N[C@H](C(=O)N[C@@H](Cc1ccccc1)C(=O)N[C@@H](C)C(=O)N[C@@H](CCCCN)C(=O)O)[C@@H](C)CC)[C@@H](C)CC)[C@@H](C)CC)[C@@H](C)CC)[C@@H](C)CC)[C@@H](C)CC)[C@@H](C)CC)[C@@H](C)O)C(C)C [PSMα4]
- ATR-FTIR amide-I peak/maximum [1]: 1620 cm⁻¹
- Initial nitrocefin-degradation reaction rate, V0 ([2]; PSMα 4.01424 uM): 0.5451
- Initial nitrocefin-degradation reaction rate, V0 ([2]; PSMα 6.02136 uM): 0.5496
- Initial nitrocefin-degradation reaction rate, V0 ([2]; PSMα 9.03205 uM): -0.2169
- Initial nitrocefin-degradation reaction rate, V0 ([2]; PSMα 13.5481 uM): 1.372
- Initial nitrocefin-degradation reaction rate, V0 ([2]; PSMα 20.3221 uM): 0.8016
- Initial nitrocefin-degradation reaction rate, V0 ([2]; PSMα 30.4832 uM): 1.8
- Initial nitrocefin-degradation reaction rate, V0 ([2]; PSMα 45.7247 uM): 3.313
- Initial nitrocefin-degradation reaction rate, V0 ([2]; PSMα 68.5871 uM): -1.824
- Initial nitrocefin-degradation reaction rate, V0 ([2]; PSMα 102.881 uM): 15.0899
- Initial nitrocefin-degradation reaction rate, V0 ([2]; PSMα 154.321 uM): 17.903
- Initial nitrocefin-degradation reaction rate, V0 ([2]; PSMα 231.481 uM): 15.5904
- Initial nitrocefin-degradation reaction rate, V0 ([2]; PSMα 347.222 uM): 26.4203
- nitrocefin degradation yield (turnover) [2]: ~ 15%

Compound: CC[C@H](C)[C@H](NC(=O)CNC(=O)[C@@H](N)CCSC)C(=O)N[C@H](C(=O)N[C@@H](C)C(=O)NCC(=O)N[C@H](C(=O)N[C@H](C(=O)N[C@@H](CCCCN)C(=O)N[C@@H](Cc1ccccc1)C(=O)N[C@H](C(=O)N[C@@H](CCCCN)C(=O)NCC(=O)N[C@@H](CC(C)C)C(=O)N[C@H](C(=O)N[C@@H](CCC(=O)O)C(=O)N[C@@H](CCCCN)C(=O)N[C@@H](Cc1ccccc1)C(=O)N[C@H](C(=O)NCC(=O)N[C@@H](CCCCN)C(=O)O)[C@@H](C)O)[C@@H](C)CC)[C@@H](C)CC)[C@@H](C)CC)[C@@H](C)CC)[C@@H](C)CC [PSMα2]
- ATR-FTIR amide-I peak/maximum [1]: 1650 cm⁻¹
- Initial nitrocefin-degradation reaction rate, V0 ([2]; PSMα 4.01424 uM): 1.158
- Initial nitrocefin-degradation reaction rate, V0 ([2]; PSMα 6.02136 uM): -0.4109
- Initial nitrocefin-degradation reaction rate, V0 ([2]; PSMα 9.03205 uM): 0.9321
- Initial nitrocefin-degradation reaction rate, V0 ([2]; PSMα 13.5481 uM): 0.6055
- Initial nitrocefin-degradation reaction rate, V0 ([2]; PSMα 20.3221 uM): 1.35
- Initial nitrocefin-degradation reaction rate, V0 ([2]; PSMα 30.4832 uM): 1.3793
- Initial nitrocefin-degradation reaction rate, V0 ([2]; PSMα 45.7247 uM): 2.588
- Initial nitrocefin-degradation reaction rate, V0 ([2]; PSMα 68.5871 uM): 11.4228
- Initial nitrocefin-degradation reaction rate, V0 ([2]; PSMα 102.881 uM): 36.0382
- Initial nitrocefin-degradation reaction rate, V0 ([2]; PSMα 154.321 uM): 59.4111
- Initial nitrocefin-degradation reaction rate, V0 ([2]; PSMα 231.481 uM): 94.344
- Initial nitrocefin-degradation reaction rate, V0 ([2]; PSMα 347.222 uM): 117.315
- nitrocefin degradation yield (turnover) [2]: ~100%

Compound: CSCC[C@H](N)C(=O)N[C@@H](CCC(=O)O)C(=O)N[C@@H](Cc1ccccc1)C(=O)N[C@H](C(=O)N[C@@H](C)C(=O)N[C@@H](CCCCN)C(=O)N[C@@H](CC(C)C)C(=O)N[C@@H](Cc1ccccc1)C(=O)N[C@@H](CCCCN)C(=O)N[C@H](Cc1ccccc1)C(=O)N[C@H](Cc1ccccc1)C(=O)N[C@@H](CCCCN)C(=O)N[C@@H](CC(=O)O)C(=O)N[C@@H](CC(C)C)C(=O)N[C@@H](CC(C)C)C(=O)NCC(=O)N[C@@H](CCCCN)C(=O)N[C@@H](Cc1ccccc1)C(=O)N[C@@H](CC(C)C)C(=O)NCC(=O)N[C@@H](CC(N)=O)C(=O)N[C@@H](CC(N)=O)C(=O)O)C(C)C [α3-(d)FF]
- ATR-FTIR amide-I shoulder: 1630 cm⁻¹
- ATR-FTIR amide-I peak/maximum [1]: 1640 cm⁻¹
- initial rate of nitrocefin degradation reaction (V0) [2]: 30 µM/h

Compound: PSMα2 (Staphylococcus aureus subsp. aureus MW2)
- Km [3]: 230 µM

Compound: PSMα1 (Staphylococcus aureus subsp. aureus NCTC 8325)
- Km [3]: 200 µM

Compound: a3-cationic (Staphylococcus aureus subsp. aureus NCTC 8325; D13N/E2Q)
- Km [4]: 772.188 µM
- Vmax [4]: 8.13 µM/min
- kcat [4]: 0.00116 s⁻¹

Compound: PSMα4 (Staphylococcus aureus subsp. aureus MW2)
- Km [3]: 200 µM

From publication PMC10713593, “Staphylococcus aureus functional amyloids catalyze degradation of β-lactam antibiotics” (Nature Communications, 2023)
